Measured values: patent EP0291007A1, “Rhodanine derivative, process for preparing the same and pharmaceutical composition containing the same” (KAKEN PHARMACEUTICAL CO., LTD., priority 1987, dated 1988)
Marks after values point to notes of the source that are not given here.

Assays:
[1] = test system: accumulation of galactitol in red blood cells; assay: Inhibiting activity of the accumulation of galactitol in red blood cells of galactose-fed dogs; type: in vivo, beagle dogs; conditions: 10 mg/kg body weight orally once daily for 3 days; blood 10 hours after galactose 15 g/kg; control group 125 ± 10
Method: Each of Compound Nos. 1-11 was administered orally in a dosage of 10 mg/kg body weight once daily for 3 days with a capsule (administration time: 9 a.m. to 9:30 a.m.) to a male or female beagle dogs (body weight: from 8 to 12 kg). As the control group, the dogs were administered with vacant capsules in the same manner as above. Dog foods containing galactose in an amount of 15 g/kg body weight were given to the dogs immediately after the final administration of the capsule. The dogs completely had eaten the dog foods for 5 to 10 minutes. The blood was collected from the cephalic vein of the dog using heparine sodium after 10 hours from the administration of galactose. The collected blood was centrifuged to give red blood cells. The obtained red blood cells were washed twice with a cold physiological saline solution and were hemolysed in distilled water having an equal volume to the red blood cells.
After removing protein from the obtained solution, the resulting solution was treated with ion exchange resins, "Dowex 50 W" and "Duolite A-4", desalted and lyophilized. After subjecting to the pre-treatment of galactitol with trimethyl silyl ether (TMS), the amount of galactitol accumulated in the red blood cells was measured by a gas chromatography.

[2] = test system: rats suffering from diabetes; assay: Inhibiting activity of the progress of cataract in diabetic rats (lens opacity score by slit lamp); type: in vivo; conditions: 100 mg/kg body weight orally daily for 5 weeks; average lens score (0-4) of both eyes; control group 1.46 ± 0.12, normal rats 0
Method: Rats suffering from diabetes for the test were produced in the same manner as in Example 13.
From the day after the administration of streptozotocin, each of Compound Nos. 1-11 suspended in a 5 % aqueous solution of gum arabic was administered orally 100 mg/kg body weight daily for 5 weeks to the rats. As the control group, a 5 % aqueous solution of gum arabic having no rhodanine derivative was administered (5 mℓ/kg body weight) to the rats in the same manner as above.
After administering streptozotocin, lenses of the rats were observed by using a slit lump (commercially available from KOWA Co., Ltd. under a trade name "Kowa SL-2") every second or third day for 5 weeks, sufficiently keeping the lenses mydriasis with a mydriatic (commercially available from Santen Pharmaceutical Co., Ltd. under the trade name "MYDRIN-P".
The opaqueness of the lenses was estimated according to the following criteria. Score 0: There was no change in the lenses. […] Score 3: Opacity was observed over the whole of lens' surface and the fundus oculi was not seen as if projected through the lens. Score 4: The nucleus lentis became opaque.
Also, with respect to the normal rats administered with a 5 % aqueous solution of gum arabic, the opaqueness were estimated in the same manner as above.

[3] = test system: rats suffering from diabetes; assay: Improving activity of the nerve conduction velocity in diabetic rats (tail nerve, method of Miyoshi); type: in vivo; conditions: 100 mg/kg body weight once daily for 2 weeks, control group 24.5 ± 1.2, normal rat 38.4 ± 2.2
Method: Rats suffering from diabetes for the test were prepared in the same manner as in Example 13.
From the day after the administration of streptozotocin, each of Compound Nos. 1-11 suspended in a 5 % aqueous solution of gum arabic was administrated to the rats in a dosage of 100 mg/kg body weight once daily for 2 weeks.
As the control groups, a 5 % aqueous solution of gum aratic having no rhodanine derivative was administered (5 mℓ/kg body weight) in the same manner as above to the rats.
Two weeks later, the conduction velocity of nerve of the rats was measured in accordance with the method of Miyoshi [Fukuoka Medical Jounal, 62(7), 588 to 603(1971)]. In this test, the nerves of the rats' tails were used as materials studied.
The rats were anesthetized with pentobarbital (30 to 45 mg/kg body weight, intraperitoneal administration), and then the conduction velocities of nerves were measured in a constant-temperature box having a temperature of 40°C.
The nerve of rat's tail was pricked with needle electrodes at a portion of about 1 cm from the anus (the first stimulation point) and at a portion of about 5 cm in a distal direction from the first stimulation point (the second stimulation point). Further, the segmental muscle of the rat's tail was pricked with a coaxial needle electrode at a portion of about 5 cm in a distol direction from the second stimulation point. The longitudinal nerve trunk of the rat's tail was stimulated at the first stimulation point and the second stimulation point to record action potentials of the provoked muscle.
The conduction velocity of nerve was calculated as follows: [formula]
Also, with respect to the normal rats administered with a 5 % aqueous solution of gum arabic, the conduction velocity of nerve was measured in the same manner as above.

[4] = test system: accumulation of sorbitol in nervous tissues; assay: Inhibiting activity of the accumulation of sorbitol in nervous tissues of streptozotocin-diabetic rats; type: in vivo, SD male rats; conditions: single dose 48 h after streptozotocin, sciatic nerve sorbitol 5 hours after administration, mean ± spread
Method: After preliminary breeding SD male rats (6 weeks old) in this laboratory for 5 days, streptozotocin (made by Sigma Chemical Company) was administered intravenously (45 mg/kg body weight) to the rats to destroy β cells of Langerhans' islets in pancreas. Thus, rats suffering from diabetes were obtained.
After 48 hours from the administration of streptozotocin, the rhodanine derivative suspended in a 5 % aqueous solution of gum arabic was administered orally (100 mg/kg body weight or 25 mg/kg body weight) to the rats suffering from diabetes.
On the other hand, a 5 % aqueous solution of gum arabic having no rhodanine derivative was administered orally (5 mℓ/kg body weight) to the rats (a control group).
After 5 hours from the administration, the rats were sacrificed by the decapitation and bled to death. Immidiately, the sciatic nervous tissues of the rats were excised and frozen with dry ice. The excised sciatic nervous tissues were stored at -70°C until the sorbitol amount was measured.
After the wet weights of nervous tissues were measured, the tissues were homogenized in 1.0 mℓ of distilled water by using a homogenizer, to which 0.2 mℓ of a 4.5 % aqueous solution of barium hydroxide and 0.2 mℓ of a 5 % aqueous solution of zinc sulfate were added. The mixture was centrifuged for 10 minutes at 3,000 rpm to remove a precipitate. Ion exchange resins "Dowex 50 W" (Dow Chemical Co.) and "Duolite A-4" (Sumitomo Chemical Company, Limited.) purchased were added in small amounts to the obtained supernatant to desalt, which was recentrifuged to obtain a supernatant. To 0.5 mℓ of the extract of sorbitol were added 1.0 mt of a 50 mM glycine-sodium hydroxide buffer solution (pH 9.4) containing 0.2 mM nicotinamide adenine dinucleotide (NAD) and 50 µℓ of an enzyme solution containing 83 µg of sorbitol dehydrogenase (commercially available from BOEHRINGER MANNHEIM CORPORATION), and the mixture was reacted at room temperature for one hour. The amount of NADH formed by oxidation of sorbitol was measured by using a spectrofluorimeter and a sorbitol concentration in the extracts was measured. From the obtained results, sorbitol concentrations in nervous tissues (n mole/mg wet weight) were calculated.
A difference between the sorbitol content of the normal rat (0.12 ± 0.01 n mole/mg) and that of the rat suffering from diabetes (0.81 ± 0.06 n mole/mg) was defined as an amount of sorbitol accumulated in the tissues due to diabetes (hereinafter referred to as "sorbitol amount due to diabetes"). Also, a difference between the sorbitol content of the rat suffering from diabetes (0.81 ± 0.06 n moles/mg) and the sorbitol content of the rat suffering from diabetes which was administered the rhodanine derivative was defined as a lowering of the amount of sorbitol due to administration of the rhodanine derivative (hereinafter referred to as "lowering of sorbitol").
A lowering percentage (%) was defined as a percentage of the lowering of sorbitol to the sorbitol amount due to diabetes. The lowering percentages of the rhodanine derivatives (Compound Nos. 1-11) are shown in Table 3 (administered 100 mg/kg body weight) and Table 4 (administered 25 mg/kg body weight) with the number of rats suffering from diabetes.

male ddY mice = assay: Acute toxicity in mice; type: in vivo; conditions: oral, up to a dose of 2,000 mg/kg body weight, observed for 2 weeks
Text: (§1) The acute toxicity in mice was examined by using the rhodanine derivatives of compound Nos. 1, 2, 5, 7 and 10.

Acute toxicity in mice = type: in vivo; conditions: mouse, in vivo; oral, mice observed for 2 weeks; read-out: LD₅₀ (oral)
Text: as §1

[5] = test system: accumulation of sorbitol in nervous tissues; assay: Inhibiting activity of the accumulation of sorbitol in nervous tissues of streptozotocin-diabetic rats; type: in vivo, SD male rats; conditions: comparison compounds with linear alkyl group at 5-position; dose not stated

| SMILES | Amount of galactitol in red blood cells (ng/g hemoglobin) [1] [ng/g hemoglobin] | Opaqueness [2] | Conduction velocity of nerve (m/sec) [3] [m/sec] | Lowering percentage (%) ([4]; 25 mg/kg body weight orally) | Lowering percentage (%) ([4]; 100 mg/kg body weight orally) | dead mice (male ddY mice) | LD50 at 336 h (Acute toxicity in mice) [mg/kg] | inhibition of the accumulation of sorbitol [5] |
| --- | --- | --- | --- | --- | --- | --- | --- | --- |
| O=C(O)CN1C(=O)C(CC2CCCCC2)SC1=S (stereo not drawn) [Compound No. 11, 3-Carboxymethyl-5-cyclo-hexylmethylrhodanine] | 87 ± 13 | 0.90 ± 0.13 | 31.8 ± 1.3 | 13.0 ± 2.9 | 27.7 ± 1.6*^1% | – | – | – |
| CCC(CCCl)C1SC(=S)N(CC(=O)O)C1=O (stereo not drawn) [Compound No. 3, 3-Carboxymethyl-5-(1-ethyl-3-chloropropyl)-rhodanine] | 57 ± 12 | 0.55 ± 0.06 | 34.2 ± 1.8 | 34.0 ± 6.2 | 62.4 ± 9.4*^3% | – | – | – |
| CC(C)(C)CC1SC(=S)N(CC(=O)O)C1=O (stereo not drawn) [Compound No. 7, 3-Carboxymethyl-5-(2,2-dimethylpropyl)rhodanine] | 48 ± 3 | 0.32 ± 0.05 | 38.5 ± 4.0 | 52.5 ± 3.4 | 80.9 ± 5.8*^3% | no dead mice were observed | > 2000 | – |
| CCCC1SC(=S)N(CC(=O)O)C1=O (stereo not drawn) [3-carboxymethyl-5-n-propylrhodanine] | – | – | – | – | – | – | – | hardly inhibited the accumulation of sorbitol |
| CCC(CC)CC1SC(=S)N(CC(=O)O)C1=O (stereo not drawn) [Compound No. 10, 3-Carboxymethyl-5-(2-ethylbutyl)rhodanine] | 90 ± 10 | 0.74 ± 0.12 | 34.1 ± 4.3 | 18.2 ± 2.0 | 42.9 ± 7.6*^2% | no dead mice were observed | > 2000 | – |
| CCC(C)CC1SC(=S)N(CC(=O)O)C1=O (stereo not drawn) [Compound No. 9, 3-Carboxymethyl-5-(2-methylbutyl)rhodanine] | 69 ± 10 | 0.72 ± 0.11 | 33.6 ± 2.6 | 19.0 ± 3.5 | 49.9 ± 6.9*^2% | – | – | – |
| CCCC(CCC)C1SC(=S)N(CC(=O)O)C1=O (stereo not drawn) [Compound No. 6, 3-Carboxymethyl-5-(1-propylbutyl)rhodanine] | 86 ± 12 | 0.90 ± 0.12 | 33.0 ± 3.1 | 16.1 ± 3.2 | 28.4 ± 7.4*^1% | – | – | – |
| CC(C)CCC1SC(=S)N(CC(=O)O)C1=O (stereo not drawn) [Compound No. 8, 3-Carboxymethyl-5-(3-methylbutyl)rhodanine] | 72 ± 11 | 0.89 ± 0.10 | 35.2 ± 1.5 | 12.2 ± 1.8 | 23.0 ± 6.2*^1% | – | – | – |
| CC(CCCCl)C1SC(=S)N(CC(=O)O)C1=O (stereo not drawn) [Compound No. 4, 3-Carboxymethyl-5-(1-methyl-4-chlorobutyl)-rhodanine] | 59 ± 6 | 0.68 ± 0.09 | 37.0 ± 3.5 | 32.2 ± 4.4 | 60.1 ± 7.3*^3% | – | – | – |
| CC(C)C(C)C1SC(=S)N(CC(=O)O)C1=O (stereo not drawn) [Compound No. 2, 3-Carboxymethyl-5-(1,2-dimethylpropyl)-rhodanine] | 66 ± 5 | 0.61 ± 0.07 | 36.6 ± 2.7 | 36.5 ± 4.7 | 68.2 ± 10.6*^3% | no dead mice were observed | > 2000 | – |
| CCC(CC)C1SC(=S)N(CC(=O)O)C1=O (stereo not drawn) [Compound No. 1, 3-Carboxymethyl-5-(1-ethylpropyl)rhodanine] | 82 ± 6 | 0.98 ± 0.06 | 36.2 ± 3.4 | 19.8 ± 3.2 | 51.5 ± 4.8*^3% | no dead mice were observed | > 2000 | – |
| CCCC(CC)C1SC(=S)N(CC(=O)O)C1=O (stereo not drawn) [Compound No. 5, 3-Carboxymethyl-5-(1-ethylbutyl)rhodanine] | 94 ± 7 | 0.92 ± 0.10 | 32.4 ± 2.8 | 15.2 ± 2.1 | 30.9 ± 8.8*^1% | no dead mice were observed | > 2000 | – |
